Counter-ions that a name gives are not always drawn.

One data set deals with human adenosine A2A receptors (Homo sapiens, UniProt P29274). Put plainly: Binding affinities at hA2A receptors, displacement of [3H]-CGS 21680. The note with it: in vitro binding, radioligand [3H]-CGS 21680. The text has this: The compounds were examined in an assay measuring in vitro binding to human adenosine A2A receptors by determining the displacement of the adenosine A2A receptor selective radioligand [^3H]-CGS 21680 using standard techniques.
Chain of human adenosine A2A receptors (P29274 whole entry): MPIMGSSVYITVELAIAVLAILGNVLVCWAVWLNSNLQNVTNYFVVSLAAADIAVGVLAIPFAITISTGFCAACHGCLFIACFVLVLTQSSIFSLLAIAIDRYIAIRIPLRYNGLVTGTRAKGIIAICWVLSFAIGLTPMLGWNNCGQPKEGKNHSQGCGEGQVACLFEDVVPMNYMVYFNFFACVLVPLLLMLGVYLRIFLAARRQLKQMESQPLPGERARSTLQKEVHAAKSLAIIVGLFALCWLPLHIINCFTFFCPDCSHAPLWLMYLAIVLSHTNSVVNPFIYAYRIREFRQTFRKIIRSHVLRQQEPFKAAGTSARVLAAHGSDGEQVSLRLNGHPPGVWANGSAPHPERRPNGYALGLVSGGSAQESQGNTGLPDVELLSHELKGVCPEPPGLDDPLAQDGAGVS
Take `OC(c1ccccc1)c1cc(C(F)(F)F)nc2c(C(F)(F)F)cccc12` (stereo not drawn) [Example 1, 2,8-Bis(trinfluoromethyl)-α-phenyl-4-quinolinemethanol]: the Ki came to 1.7 µM.
As to `OC(c1cccs1)c1cc(C(F)(F)F)nc2c(C(F)(F)F)cccc12` (stereo not drawn) [Example 2, 2,8-Bis(trifluoromethyl)-α-(2-thienyl)-4-quinolinemethanol], the Ki turned out to be 1.55 µM. The Ki values of the last two molecules are within 1.5-fold of each other.
The same measure, in the same setting: the value for `OC(c1ccsc1)c1cc(C(F)(F)F)nc2c(C(F)(F)F)cccc12` (stereo not drawn) [Example 3, 2,8-Bis(trifluoromethyl)-α-(3-thienyl)-4-quinolinemethanol] was 0.954 µM.
On the same count and under the same terms, the value for `OC(c1ccco1)c1cc(C(F)(F)F)nc2c(C(F)(F)F)cccc12` (stereo not drawn) [Example 4, 2,8-Bis(trifluoromethyl)-α-(2-furyl)-4-quinolinemethanol] was 1.12 µM; that for `OC(c1ccoc1)c1cc(C(F)(F)F)nc2c(C(F)(F)F)cccc12` (stereo not drawn) [Example 5, 2,8-Bis(trifluoromethyl)-α-(3-furyl)-4-quinolinemethanol] was 1.03 µM.
Take `OC(c1cc(C(F)(F)F)nc2c(C(F)(F)F)cccc12)C1CCCCC1` (stereo not drawn) [Example 7, 2,8-Bis(trifluoromethyl)-α-clohexyl-4-quinolinemethanol]: the Ki worked out at 0.852 µM.
Same read-out and setting: the result for `OC1(c2cc(C(F)(F)F)nc3c(C(F)(F)F)cccc23)CCc2ccccc21` (centres unmarked) [Example 10, 1-(2,8-Bis(tnfluoromethyl)-4-quinolinyl)-1-indanol] reads 1.75 µM; that for `OC1(c2cc(C(F)(F)F)nc3c(C(F)(F)F)cccc23)CCCc2ccccc21` (centres unmarked) [Example 11, 1-(2,8-Bis(trifluoromethyl)-4-quinolinyl)-1,2,3,4-tetrabydro-1-naphthol], 1.36 µM.
Same read-out and setting: the result for `OC1Cc2ccccc2C1c1cc(C(F)(F)F)nc2c(C(F)(F)F)cccc12` (centres unmarked) [Example 12, 1-(2,8-Bis(trifluorometbyl)-4-quinolinyl)-2-indanol] reads 1.9 µM; that for `Cc1c(C(F)(F)F)nc2c(C(F)(F)F)cccc2c1C(O)c1cccs1` (stereo not drawn) [Example 16, 2,8-Bis(trifluoromethyl)-3-methyl-α-(2-thienyl)-4-quinolinemethanol], 1.79 µM.
Same read-out and setting: the value for `OC(c1ccccc1Cl)c1cc(C(F)(F)F)nc2c(C(F)(F)F)cccc12` (stereo not drawn) [Example 18, 2,8-Bis(trifluoromethyl)-α-(2-chlorophenyl)-4-quinolinemethanol] was 1.19 µM; that for `O=[N+]([O-])c1ccccc1C(O)c1cc(C(F)(F)F)nc2c(C(F)(F)F)cccc12` (stereo not drawn) [Example 19, 2,8-Bis(trifluoromethyl)-α-(2-nitrophenyl)-4-quinolinemethanol] was 1.74 µM.
In turn, `OC(c1c(Cl)cccc1Cl)c1cc(C(F)(F)F)nc2c(C(F)(F)F)cccc12` (stereo not drawn) [Example 20, 2,8-Bis(trifluoromethyl)-α-(2,6-dichlorophenyl)-4-quinolinemethanol] returned an inhibition constant Ki of 0.649 µM.
Molecule `Cc1cccc2c(C(O)c3ccccc3)cc(C(F)(F)F)nc12` (stereo not drawn) [Example 26, 8-Methyl-α-phenyl-2-trifluoromethyl-4-quinolinemethanol] displayed an inhibition constant Ki of 1.11 µM.
Same read-out and setting: the result for `Cc1cccc2c(C(O)c3ccccc3Cl)cc(C(F)(F)F)nc12` (stereo not drawn) [Example 27, α-(2-Chlorophenyl)-8-methyl-2-trinfluoromethyl-4-quinolinemethanol] reads 1.13 µM.
In turn, `Cc1cccc2c(C(O)C3CCCCC3)cc(C(F)(F)F)nc12` (stereo not drawn) [Example 29, α-Cyclohexyl-8-methyl-2-trifluoromethy-4-quinolinemethanol] had a Ki of 0.965 µM.
`CCc1cccc2c(C(O)c3ccsc3)cc(C(F)(F)F)nc12` (stereo not drawn) [Example 32, 8-Ethyl-α-(3-thienyl)-2-trifluoromethyl-4-quinolinemethanol] displayed an inhibition constant Ki of 1.07 µM.
Still for that read-out and setting: the value for `OC(c1ccsc1)c1cc(C(F)(F)F)nc2c(Cl)cccc12` (stereo not drawn) [Example 47, 8-Chloro-α-(3-thienyl)-2-trifluoromethyl-4-quinolinemethanol] was 1.07 µM.
Same read-out and setting: the result for `CC(O)(c1cc2ccccc2o1)c1cc(C(F)(F)F)nc2c(C(F)(F)F)cccc12` (centres unmarked) [Example 51] reads 1.52 µM.
Same read-out and setting: the result for `Oc1ccc(C(O)c2cc(C(F)(F)F)nc3c(C(F)(F)F)cccc23)cc1` (stereo not drawn) [Example 74, 2,8-Bis(trifluoromethyl)-α-(4-hydroxyphenyl)-4-quinolinemethanol] reads 1.63 µM.

Tested on in a further data set: not given
Assay: not given
Conditions: not given
`COc1cc(C(O)C2CCCCC2)c2ccccc2n1.Cl` (centres unmarked) came in with a melting point of 155.9 to 156.3 °C.
Same read-out and setting: the result for `Cc1cc(C(O)c2ccccc2)c2ccccc2n1` (stereo not drawn) (as salt: salt) [Example 39, 2-Methyl-α-phenyl-4-quinolinemethanol] reads 192 °C (dec.).
Same read-out and setting: the result for `Cc1cc(C(O)c2ccsc2)c2ccccc2n1` (stereo not drawn) (as salt: salt) [Example 42, 2-Methyl-α-(3-thienyl)-4-quinolinemethanol] reads 200 °C (dec.).
As to `OC(c1cccs1)c1ccnc2ccccc12` (stereo not drawn) (as salt: salt) [Example 49, α-(2-Thienyl)-4-quinolinemethanol], the melting point is 173 °C (dec.).
Same read-out and setting: the result for `OC(c1ccccc1)c1cc(C(F)(F)F)nc2c(C(F)(F)F)cccc12` (stereo not drawn) [Example 1, 2,8-Bis(trinfluoromethyl)-α-phenyl-4-quinolinemethanol] reads 151 to 152 °C.
`OC(c1cc(C(F)(F)F)nc2c(C(F)(F)F)cccc12)c1cc(C(F)(F)F)nc2c(C(F)(F)F)cccc12` [Example 8, Bis(2,8-bis(trifluoromethyl)-4-quinolinyl)methanol] came in with a melting point of 198 to 199 °C.
Still for that read-out and setting: the value for `OC(Cc1cc(C(F)(F)F)nc2c(C(F)(F)F)cccc12)c1ccccc1` (stereo not drawn) [Example 9, 2,8-Bis(trifluoromethyl)-α-phenyl-4-quinolineethanol] was 111 to 112 °C.
The same measure, in the same setting: the result for `OC1(c2cc(C(F)(F)F)nc3c(C(F)(F)F)cccc23)CCCc2ccccc21` (centres unmarked) [Example 11, 1-(2,8-Bis(trifluoromethyl)-4-quinolinyl)-1,2,3,4-tetrabydro-1-naphthol] reads 128.8 to 129.4 °C; that for `Cc1c(C(F)(F)F)nc2c(C(F)(F)F)cccc2c1C(O)c1cccs1` (stereo not drawn) [Example 16, 2,8-Bis(trifluoromethyl)-3-methyl-α-(2-thienyl)-4-quinolinemethanol], 125.1 to 125.8 °C.
On the same count and under the same terms, the value for `OC(c1c(Cl)cccc1Cl)c1cc(C(F)(F)F)nc2c(C(F)(F)F)cccc12` (stereo not drawn) [Example 20, 2,8-Bis(trifluoromethyl)-α-(2,6-dichlorophenyl)-4-quinolinemethanol] was 151.2 to 151.7 °C.
Molecule `CN(C)c1cc(C(O)c2ccccc2)c2ccccc2n1` (stereo not drawn) [Example 35, 2-Dimethylamino-α-phenyl-4-quinolinemethanol] registered a melting point of 153.6 to 154.3 °C.
Same read-out and setting: the value for `OC(c1ccsc1)c1cc(-c2ccccc2)nc2ccccc12` (stereo not drawn) [Example 41, 2-Phenyl-α-(3-thienyl)-4-quinolinemethanol] was 158 to 159 °C; that for `OC(c1ccsc1)c1cc(C(F)(F)F)nc2ccccc12` (stereo not drawn) [Example 43, α-(3-Thienyl)-2-trifluoromethyl-4-quinolinemethanol] was 144 to 146 °C.
Still for that read-out and setting: the result for `OC1(c2cc(C(F)(F)F)nc3ccccc23)CCSC1` (centres unmarked) [Example 44, 3-(2-trifluoromethyl-4-quinolinyl)tetrahydrothiophene-3-ol] reads 130 to 131 °C; that for `COc1cccc2c(C(O)c3ccsc3)cc(C(F)(F)F)nc12` (stereo not drawn) [Example 46, 8-Methoxy-α-(3-thienyl)-2-trifluoromethyl-4-quinolinemethanol], 157 to 158 °C.
Same read-out and setting: the value for `OC(Cc1cc(C(F)(F)F)nc2c(C(F)(F)F)cccc12)c1cc2ccccc2o1` (stereo not drawn) [Example 51, α-(2-Benzofuranyl)-2,8-bis(trifluoromethyl)-4-quinolineethanol] was 123 to 124 °C; that for `OC1(c2cc(C(F)(F)F)nc3c(C(F)(F)F)cccc23)C=CCC1` (centres unmarked) [Example 53, 1-(2,8-Bis(trifluoromethyl)-4-quinolinyl)cyclopent-2-ene-1-ol] was 73 to 74 °C.
`Cc1cc(C(O)C2CCCCC2)c2cccc(C)c2n1` (stereo not drawn) [Example 54, α-Cyclohexyl-2,8-dimethyl-4-quinolinemethanol] returned a melting point of 155 to 157 °C.
For `O=C(NCc1ccccc1)c1cc(C(O)C2CCCCC2)c2ccccc2n1` (centres unmarked) [Example 61, N-Benzyl-4-(1-cyclohexyl-1-hydroxymethyl)-2-quinolinecarboxamide], the melting point is 152.8 to 153.3 °C.
Turning to `Cc1cccc2c(C(O)c3ccccn3)cc(Br)nc12` (stereo not drawn) [Example 64, 2-Bromo-8-methyl-α-(2-pyridyl)-4-quinolinemethanol], the melting point was 149 °C (dec.).
On the same count and under the same terms, the value for `Cc1cccc2c(C(O)c3ccccc3)cc(Br)nc12` (stereo not drawn) [Example 65, 2-Bromo-8-methyl-α-phenyl-4-quinolinemethanol] was 130.7 to 131.8 °C; that for `COc1cc(C(O)c2ccccn2)c2cccc(C)c2n1` (stereo not drawn) [Example 67, 2-Methoxy-8-methyl-α-(2-pyridyl)-4-quinolinemethanol] was 126.8 to 127.6 °C; that for `Nc1ccccc1C(O)c1cc(C(F)(F)F)nc2c(C(F)(F)F)cccc12` (stereo not drawn) [Example 76, α-(2-Aminophenyl)-2,8-bis(trifluoromethyl)-4-quinolinemethanol] was 145.9 to 146.2 °C.
Same read-out and setting: the value for `OC(c1cc(NCc2ccccc2)nc2ccccc12)C1CCCCC1` (stereo not drawn) [Example 79, 2-Benzylamino-α-cyclohexyl-4-quinolinemethanol] was 122.5 to 123.1 °C.
Same read-out and setting: the result for `OCCCCC(O)c1cc(C(F)(F)F)nc2c(C(F)(F)F)cccc12` (centres unmarked) [Example 82, 1-(2,8-Bis(trifluoromethyl)-4-quinolinyl)-5-hydroxypentanol] reads 120.6 to 120.9 °C; that for `OC(c1ccccc1)c1cc(Cl)nc2ccccc12` (stereo not drawn) [Example 83, 2-Chloro-α-phenyl-4-quinolinemethanol], 144 to 146 °C.
With `Cc1cccc2c(C(O)c3ccccn3)cc(O)nc12` (stereo not drawn) [Example 88, 2-Hydroxy-8-methyl-α-(2-pyridyl)-4-quinolinemethanol], the melting point is 215 °C (dec.).
`Oc1cc(C(O)(c2ccccc2)c2ccccc2)c2ccccc2n1` [Example 90, α,α-Diphenyl-2-hydroxy-4-quinolinemethanol] displayed a melting point of over 350 °C.
Same read-out and setting: the value for `OC(c1ccccc1)c1cc(-c2ccccc2)nc2ccccc12` (stereo not drawn) [Example 91, 2,α-Diphenyl-4-quinolinemethanol] was 111 to 112 °C; that for `FC(F)(F)c1cc(-c2ccco2)c2cccc(C(F)(F)F)c2n1` [Example 93, 2,8-Bis(trifluoromethyl)-4-(2-furanyl)quinoline] was 82 to 83 °C.

For the origin of these results see patent publication US6583156B1 (Vernalis Research Limited, priority 1998, dated 2003).
